Article PMC9516332 (Frontiers in Oncology, 2022)

Key:
Test in all cases: Kinase panel profiling at 1 µmol/L (MSA or IMAP), percentage inhibition
Format in all cases: biochemical
[1] = molecular target: panel of 255 wild-type kinases (Homo sapiens, UniProt Q8N4C8); details: MINK; 1 µmol/L single concentration; read-out: %-inhibition, MINK
[2] = molecular target: panel of 255 wild-type kinases (Homo sapiens, UniProt P49760); details: kinase CLK2; 1 µmol/L single concentration; read-out: %-inhibition at 1 µmol/L, CLK2
[3] = molecular target: T1, panel of 255 wild-type kinases (Homo sapiens, UniProt P53778); details: p38γ; 1 µmol/L single concentration; read-out: %-inhibition, p38γ
T1 sequence (P53778 1-367): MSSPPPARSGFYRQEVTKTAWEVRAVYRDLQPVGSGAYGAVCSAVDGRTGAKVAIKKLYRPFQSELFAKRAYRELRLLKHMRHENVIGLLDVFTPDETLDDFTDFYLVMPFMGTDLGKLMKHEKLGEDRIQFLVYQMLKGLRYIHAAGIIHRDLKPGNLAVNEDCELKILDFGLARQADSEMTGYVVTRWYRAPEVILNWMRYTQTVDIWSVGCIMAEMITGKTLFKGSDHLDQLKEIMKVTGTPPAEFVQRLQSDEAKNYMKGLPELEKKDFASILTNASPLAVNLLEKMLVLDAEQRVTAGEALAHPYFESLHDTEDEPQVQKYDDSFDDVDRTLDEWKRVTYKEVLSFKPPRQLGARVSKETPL

[4] = molecular target: panel of 255 wild-type kinases (Homo sapiens, UniProt P04629); details: kinase TRKA; 1 µmol/L single concentration; read-out: %-inhibition at 1 µmol/L, TRKA
[5] = molecular target: panel of 255 wild-type kinases (Homo sapiens, UniProt P54646); details: AMPKα2/β1/γ1 kinase assay; 1 µmol/L single concentration; read-out: %-inhibition AMPKα2/β1/γ1
[6] = molecular target: panel of 255 wild-type kinases (Homo sapiens, UniProt Q07912); details: ACK kinase assay; 1 µmol/L single concentration; read-out: %-inhibition ACK
[7] = molecular target: panel of 255 wild-type kinases (Homo sapiens, UniProt P08631); details: kinase HCK; 1 µmol/L single concentration; read-out: %-inhibition at 1 µmol/L, HCK
[8] = molecular target: panel of 255 wild-type kinases (Homo sapiens, UniProt P35916); details: kinase FLT4; 1 µmol/L single concentration; read-out: %-inhibition at 1 µmol/L, FLT4
[9] = molecular target: T2, panel of 255 wild-type kinases (Homo sapiens, UniProt Q13043); details: MST1; 1 µmol/L single concentration; read-out: %-inhibition, MST1
T2 sequence (Q13043 1-487): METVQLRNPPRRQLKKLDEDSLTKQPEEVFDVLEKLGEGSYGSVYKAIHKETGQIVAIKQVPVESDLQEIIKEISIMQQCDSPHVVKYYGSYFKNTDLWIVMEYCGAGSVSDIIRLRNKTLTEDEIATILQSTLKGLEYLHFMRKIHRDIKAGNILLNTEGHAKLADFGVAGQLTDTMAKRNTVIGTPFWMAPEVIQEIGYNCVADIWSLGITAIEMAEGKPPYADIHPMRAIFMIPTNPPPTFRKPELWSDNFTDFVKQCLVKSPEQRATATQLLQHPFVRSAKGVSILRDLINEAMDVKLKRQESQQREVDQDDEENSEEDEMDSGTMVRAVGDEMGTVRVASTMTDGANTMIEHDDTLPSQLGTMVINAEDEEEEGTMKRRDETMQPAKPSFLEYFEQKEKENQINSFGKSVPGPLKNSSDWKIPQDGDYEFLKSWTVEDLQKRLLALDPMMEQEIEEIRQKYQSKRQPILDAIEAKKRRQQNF

[10] = molecular target: panel of 255 wild-type kinases (Homo sapiens, UniProt Q9BUB5); details: MNK1; 1 µmol/L single concentration; read-out: %-inhibition, MNK1
[11] = molecular target: T3, panel of 255 wild-type kinases (Homo sapiens, UniProt Q9BXA7); details: kinase TSSK1; 1 µmol/L single concentration; read-out: %-inhibition at 1 µmol/L, TSSK1
T3 sequence (Q9BXA7 1-367): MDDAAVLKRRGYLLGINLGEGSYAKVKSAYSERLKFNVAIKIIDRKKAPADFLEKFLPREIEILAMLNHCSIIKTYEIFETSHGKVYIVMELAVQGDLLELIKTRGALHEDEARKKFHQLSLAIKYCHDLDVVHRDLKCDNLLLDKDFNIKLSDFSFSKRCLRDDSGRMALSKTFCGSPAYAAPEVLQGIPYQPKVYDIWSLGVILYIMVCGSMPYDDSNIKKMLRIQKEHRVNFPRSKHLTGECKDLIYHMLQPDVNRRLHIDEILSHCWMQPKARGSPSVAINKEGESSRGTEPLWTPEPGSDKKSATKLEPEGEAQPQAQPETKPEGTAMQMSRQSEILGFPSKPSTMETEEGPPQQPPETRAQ

Row | Compound | inhibition at 1 µM [1] [%] | inhibition at 1 µM [2] [%] | inhibition at 1 µM [3] [%] | inhibition at 1 µM [4] [%] | inhibition at 1 µM [5] [%] | inhibition at 1 µM [6] [%] | inhibition at 1 µM [7] [%] | inhibition at 1 µM [8] [%] | inhibition at 1 µM [9] [%] | inhibition at 1 µM [10] [%] | inhibition at 1 µM [11] [%]
1 | CO[C@]1(C(=O)N[C@@H](C)c2ccc(-n3cc(F)cn3)nc2)CC[C@H](c2nc(C)cc(Nc3cc(C)[nH]n3)n2)CC1 [pralsetinib] | -3.43 | 9.51 | -1.77 | 96 | 83 | 84 | 82 | 99 | 19 | -4.32 | 4.54
2 | COc1cc2ncnc(Nc3ccc(F)c(Cl)c3)c2cc1NC(=O)/C=C/CN1CCCCC1 [dacomitinib] | 7.37 | -0.6 | 0.231 | 6 | -3 | 32 | 57 | 34 | 2.73 | 91 | -2.48
3 | CCn1c(=O)c(-c2cc(NC(=O)Nc3ccccc3)c(F)cc2Br)cc2cnc(NC)cc21 [ripretinib] | 3.55 | -4 | 0.893 | 42 | -22 | 23 | 60 | 93 | 3 | 8.51 | -4.3
4 | Cc1nc(NC(=O)N2CCC[C@H]2C(N)=O)sc1-c1ccnc(C(C)(C)C(F)(F)F)c1 [alpelisib] | -2 | 85 | -6 | 6.61 | 2.22 | 5.5 | 4.56 | 5 | 5 | 2.72 | -5
5 | C=CC(=O)N1CCC([C@@H]2CCNc3c(C(N)=O)c(-c4ccc(Oc5ccccc5)cc4)nn32)CC1 [zanubrutinib] | -1.27 | 7.62 | 4 | 9 | -5 | 11 | – | 6.34 | -3 | -4.39 | 2.13
6 | O=C(Nc1cnn2ccc(N3CCC[C@@H]3c3cc(F)ccc3F)nc12)N1CC[C@H](O)C1 [larotrectinib] | -2.24 | 9 | 2.3 | 99 | -6 | 52 | -3 | -1 | -4 | -5.37 | 4
7 | Cc1cc(Nc2ncnc3ccc(NC4=NC(C)(C)CO4)cc23)ccc1Oc1ccn2ncnc2c1 [tucatinib] | -4.35 | 5 | -1.75 | 20 | -1.44 | 9 | -3 | 13 | 4 | -1.41 | 2.58
8 | FC(F)(F)c1ccc(CNc2ccc(Cc3c[nH]c4ncc(Cl)cc34)cn2)cn1 [pexidartinib] | 9 | 3.48 | 2.47 | 79 | -7 | 12 | 3 | 66 | 25 | 61 | 12
9 | Cn1cnc2c(F)c(Nc3ccc(Br)cc3F)c(C(=O)NOCCO)cc21 [binimetinib] | -4.54 | -2.25 | 2 | -5 | -3.67 | -4 | -8 | 3.37 | -6.46 | 1.8 | 0.849
10 | CN1CCN(c2ccc(C(=O)Nc3n[nH]c4ccc(Cc5cc(F)cc(F)c5)cc34)c(NC3CCOCC3)c2)CC1 [entrectinib] | 1.64 | 28 | -3 | – | 79 | – | 91 | – | 92 | -1 | 8
11 | COC(=O)N[C@@H](C)CNc1nccc(-c2cn(C(C)C)nc2-c2cc(Cl)cc(NS(C)(=O)=O)c2F)n1 [encorafenib] | 1.29 | 0.465 | 3.2 | -2.7 | 0.723 | -4.66 | -5.46 | 17 | 0.835 | 4.33 | 3
12 | C[C@H]1Oc2cc(cnc2N)-c2c(nn(C)c2C#N)CN(C)C(=O)c2ccc(F)cc21 [lorlatinib] | -0.198 | 2.49 | -4.48 | – | 2.22 | – | 42 | 5 | 28 | 6 | 84
13 | CCN1CCN(c2ccc(Nc3cc(N(C)C(=O)Nc4c(Cl)c(OC)cc(OC)c4Cl)ncn3)cc2)CC1 [infigratinib] | -2.82 | 15 | -3 | 27 | -2 | 43 | 22 | 92 | 1.11 | -1.75 | 3.24
14 | COc1ccc(CN2C3CC2CN(c2ccc(-c4cc(OCC(C)(C)O)cn5ncc(C#N)c45)cn2)C3)cn1 [selpercatinib] | -5.33 | -2.3 | 0.277 | 33 | 28 | 4.48 | 58 | 101 | -2.33 | 42 | 45
15 | Cn1cnc2c(F)c(Nc3ccc(Br)cc3Cl)c(C(=O)NOCCO)cc21 [selumetinib] | -4.5 | 7 | -1.75 | 18 | 1.9 | 0.731 | 4 | 8 | -2.38 | -6.56 | 0.947
